Read-outs that look alike come from different tables or passages of the source.
Key:
Test in all cases: Growth inhibition GI50 in vitro (CCK8/MTT, 72 h)
Calu-3 (Her2 amp) = format: cell-based; details: Homo sapiens
H292 (EGFR WT) = format: cell-based; details: Homo sapiens, NCI-H292
N87 (HER2 Amp) = format: cell-based, human; details: Homo sapiens
[1] = system: H460 (EGFR wt, Kras G61H); format: cell-based, human; details: Homo sapiens, NCI-H460
[2] = system: A431 (EGFR WT, amplification and high expression); format: cell-based, human; details: Homo sapiens, A-431
[3] = system: H1299 (EGFR wt, Nras Q61K); format: cell-based, human; details: Homo sapiens, NCI-H1299
A549 (EGFR WT) = format: cell-based, human; details: Homo sapiens
PC-9 (EGFR dE746-A750) = format: cell-based, human; details: Homo sapiens
[4] = system: PC-9ER (EGFR delE746-A750/T790M); format: cell-based, human; details: Homo sapiens, PC-9/ER; EGFR mutant cell line; range of GI50; read-out: GI50 PC9ER
HCC827 (EGFR dE746-A750) = format: cell-based, human; details: Homo sapiens
H1975 (EGFR L858R/T790M) = format: cell-based, human; details: Homo sapiens, NCI-H1975
SK-BR-3 (Her2 amp) = format: cell-based, human; details: Homo sapiens
AU565 (Her2 amp) = format: cell-based, human; details: Homo sapiens
[5] = Calu-3, EGFR wt, Her2 amp, read-out: GI50
[6] = HER2 positive cell line, range of GI50, read-out: GI50 N87
[7] = N87, EGFR wt, Her2 amp, read-out: GI50
[8] = EGFR wild type cell line, range of GI50, read-out: GI50 H460
[9] = H460, EGFR wt, Kras G61H, read-out: GI50
[10] = EGFR wild type cell line, range of GI50, read-out: GI50 A431
[11] = EGFR wild type cell line, range of GI50, read-out: GI50 H1299
[12] = H1299, EGFR wt, Nras Q61K, read-out: GI50
[13] = A549, EGFR wild type cell line, range of GI50, read-out: GI50 A549
[14] = A549, EGFR wt, Kras G12S, read-out: GI50
[15] = EGFR mutant cell line, range of GI50, read-out: GI50 PC-9
[16] = PC-9, EGFR dE746-A750, read-out: GI50
[17] = HCC827, EGFR mutant cell line, range of GI50, read-out: GI50 HCC827
[18] = HCC827, EGFR dE746-A750, read-out: GI50
[19] = EGFR mutant cell line, range of GI50, read-out: GI50 H1975
[20] = H1975, EGFR L858R/T790M, read-out: GI50
[21] = SK-BR-3, HER2 positive cell line, range of GI50, read-out: GI50 SK-BR-3
[22] = SK-BR-3, EGFR wt, Her2 amp, read-out: GI50
[23] = AU565, HER2 positive cell line, range of GI50, read-out: GI50 AU-565
[24] = AU565, EGFR wt, Her2 amp, read-out: GI50
[25] = Calu-3, Table 16, 1000 nM to 0.03 nM serial dilution, read-out: GI50 Calu3 (HER2 amp)
[26] = Table 15, 1000 nM to 0.03 nM serial dilution, read-out: GI50 H292 (EGFR WT)
[27] = Table 16, 1000 nM to 0.03 nM serial dilution, read-out: GI50 N87 (HER2 amp)
[28] = A549, Table 15, 1000 nM to 0.03 nM serial dilution, read-out: GI50 A549 (EGFR WT)
[29] = Table 15, 1000 nM to 0.03 nM serial dilution, read-out: GI50 PC-9 (EGFR dE746-A750)
[30] = Table 15, 1000 nM to 0.03 nM serial dilution, read-out: GI50 H1975 (EGFR L858R/T790M)

Structure (SMILES)	GI50 (Calu-3 (Her2 amp); [5])	GI50 (H292 (EGFR WT); H292, EGFR wt, read-out: GI50)	GI50 [1, 8]	GI50 [1, 9]	GI50 ([2]; A431, EGFR wt, read-out: GI50)	GI50 [2, 10]	GI50 [3, 11]	GI50 [3, 12]	GI50 (A549 (EGFR WT); [13])	GI50 (A549 (EGFR WT); [14])	GI50 (PC-9 (EGFR dE746-A750); [15])	GI50 (PC-9 (EGFR dE746-A750); [16])	GI50 [4]	GI50 (HCC827 (EGFR dE746-A750); [17])	GI50 (HCC827 (EGFR dE746-A750); [18])	GI50 (H1975 (EGFR L858R/T790M); [19])	GI50 (SK-BR-3 (Her2 amp); [21])	GI50 (N87 (HER2 Amp); [6])	GI50 (N87 (HER2 Amp); [7])	GI50 (AU565 (Her2 amp); [23])	further results
C=CC(=O)Nc1cc(Nc2nccc(Nc3cccc(Cl)c3)n2)c(OC)cc1N(C)CCN(C)C [Compound 2, N-(5-(4-(3-chloro-phenylamino)-pyrimidin-2-ylamino)-2-(2-(dimethylamino-ethyl)-methyl-amino)-4-methoxyl-phenyl)-acrylamide]	31.2 nM	> 1000 nM	> 1000 nM	> 1000 nM	156 nM	100 to 1000 nM	> 1000 nM	> 1000 nM	> 1000 nM	> 1000 nM	< 10 nM	5.4 nM	< 10 nM	< 10 nM	2.3 nM	10 to 100 nM	10 to 100 nM	< 10 nM	10 nM	10 to 100 nM	GI50 (H1975 (EGFR L858R/T790M); [20]): 14.6 nM; GI50 (SK-BR-3 (Her2 amp); [22]): 19.5 nM; GI50 (AU565 (Her2 amp); [24]): 15.4 nM
C=CC(=O)Nc1cc(Nc2nccc(Nc3ccc(OCc4ccccn4)c(Cl)c3)n2)c(OC)cc1N(C)CCN(C)C [Compound 18, N-(5-(4-(3-chloro-4-(pyridin-2-methoxyl)phenylamino)pyrimidin-2-ylamino)-2-((2-(dimethylamino)ethyl)(methyl)amino)-4-methoxyl-phenyl)-acrylamide]	23.4 nM	> 1000 nM	> 1000 nM	> 1000 nM	438 nM	100 to 1000 nM	> 1000 nM	> 1000 nM	> 1000 nM	> 1000 nM	10 to 100 nM	14.5 nM	< 10 nM	10 to 100 nM	9.4 nM	10 to 100 nM	10 to 100 nM	10 to 100 nM	19.5 nM	10 to 100 nM	GI50 (H1975 (EGFR L858R/T790M); [20]): 14.6 nM; GI50 (SK-BR-3 (Her2 amp); [22]): 39.1 nM; GI50 (AU565 (Her2 amp); [24]): 15.6 nM
C=CC(=O)Nc1cc(Nc2nccc(-n3ccc4c(OC)cccc43)n2)c(OC)cc1N(C)CCN(C)C [Compound 99, N-(5-(4-(4-methoxyl-1H-indol-1-yl)-pyrimidin-2-ylamino)-2-(2-(dimethylamino-ethyl)-methyl-amino)-4-methoxyl-phenyl)-acrylamide]			> 1000 nM			100 to 1000 nM	> 1000 nM		> 1000 nM		10 to 100 nM		< 10 nM	10 to 100 nM		< 10 nM	10 to 100 nM	< 10 nM		10 to 100 nM	GI50 (Calu-3 (Her2 amp); [25]): 3.26 nM; GI50 (H292 (EGFR WT); [26]): > 1000 nM; GI50 (N87 (HER2 Amp); [27]): 1.35 nM; GI50 (A549 (EGFR WT); [28]): > 1000 nM; GI50 (PC-9 (EGFR dE746-A750); [29]): 14.1 nM; GI50 (H1975 (EGFR L858R/T790M); [30]): 9.25 nM
C=CC(=O)Nc1cc(Nc2ncnc(Nc3cccc(F)c3)n2)c(OC)cc1N(C)CCN(C)C [Compound 114, N-(5-(4-(3-fluoro-phenylamino)-[1,3,5]triazin-2-ylamino)-2-((2-dimethylamino-ethyl)-methyl-amino)-4-methoxyl-phenyl)-acrylamide]	7.2 nM	> 1000 nM	> 1000 nM	> 1000 nM	117 nM	100 to 1000 nM	> 1000 nM	> 1000 nM	> 1000 nM	> 1000 nM	< 10 nM	2 nM	10 to 100 nM	< 10 nM	1.1 nM	10 to 100 nM	< 10 nM	< 10 nM	4.8 nM	< 10 nM	GI50 (H1975 (EGFR L858R/T790M); [20]): 10 nM; GI50 (SK-BR-3 (Her2 amp); [22]): 4.8 nM; GI50 (AU565 (Her2 amp); [24]): 10 nM
C=CC(=O)Nc1cc(Nc2cc(Nc3ccc(F)c(Cl)c3)ncn2)c(OC)cc1N1CCN(C2CCN(C)CC2)CC1 [Compound 147, N-(5-(6-(3-chloro-4-fluoro-phenylamino)-pyrimidin-4-ylamino)-4-methoxyl-2-(4-(1-methylpiperidin-4-yl)-piperazin-1-yl)-phenyl)-acrylamide]	12.5 nM	> 1000 nM	> 1000 nM	> 1000 nM	37.5 nM	10 to 100 nM	> 1000 nM	> 1000 nM	> 1000 nM	896 nM	< 10 nM	0.58 nM	< 10 nM	< 10 nM	4.7 nM	< 10 nM	< 10 nM	< 10 nM	4.8 nM	< 10 nM	GI50 (H1975 (EGFR L858R/T790M); [20]): 4.6 nM; GI50 (SK-BR-3 (Her2 amp); [22]): 5.6 nM; GI50 (AU565 (Her2 amp); [24]): 2.6 nM

Continued, in another order:

GI50 (Calu-3 (Her2 amp); [5])	GI50 (H292 (EGFR WT); H292, EGFR wt, read-out: GI50)	GI50 [1, 8]	GI50 [1, 9]	GI50 ([2]; A431, EGFR wt, read-out: GI50)	GI50 [2, 10]	GI50 [3, 11]	GI50 [3, 12]	GI50 (A549 (EGFR WT); [13])	GI50 (A549 (EGFR WT); [14])	GI50 (PC-9 (EGFR dE746-A750); [15])	GI50 (PC-9 (EGFR dE746-A750); [16])	GI50 [4]	GI50 (HCC827 (EGFR dE746-A750); [17])	GI50 (HCC827 (EGFR dE746-A750); [18])	GI50 (H1975 (EGFR L858R/T790M); [19])	GI50 (SK-BR-3 (Her2 amp); [21])	Structure (SMILES)	GI50 (N87 (HER2 Amp); [6])	GI50 (N87 (HER2 Amp); [7])	GI50 (AU565 (Her2 amp); [23])	further results
19.5 nM	> 1000 nM	> 1000 nM	> 1000 nM	625 nM	100 to 1000 nM	> 1000 nM	> 1000 nM	> 1000 nM	978 nM	< 10 nM	7.3 nM	< 10 nM	< 10 nM	6.4 nM	< 10 nM	10 to 100 nM	C=CC(=O)Nc1cc(Nc2ncc(Cl)c(Nc3ccc(OCc4ccccn4)c(Cl)c3)n2)c(OC)cc1N(C)CCN(C)C [Compound 19, N-(5-(5-chloro-4-(3-chloro-4-(pyridin-2-methoxyl)phenylamino)-pyrimidin-2-ylamino)-2-((2-(dimethylamino)ethyl)(methyl)amino)-4-methoxyl-phenyl)-acrylamide]	10 to 100 nM	19.5 nM	10 to 100 nM	GI50 (H1975 (EGFR L858R/T790M); [20]): 4.9 nM; GI50 (SK-BR-3 (Her2 amp); [22]): 39.1 nM; GI50 (AU565 (Her2 amp); [24]): 17.5 nM
		> 1000 nM			100 to 1000 nM	> 1000 nM		> 1000 nM		10 to 100 nM		< 10 nM	10 to 100 nM		10 to 100 nM	10 to 100 nM	C=CC(=O)Nc1cc(Nc2cc(Nc3cc(OC)c(Cl)cc3Cl)ncn2)c(OC)cc1N(C)CCN(C)C [Compound 136, N-(5-(6-(2,4-dichloro-5-methoxyl-phenylamino)-pyrimidin-4-ylamino)-2-((2-dimethylamino-ethyl)-methyl-amino)-4-methoxyl-phenyl)-acrylamide]	10 to 100 nM		10 to 100 nM	GI50 (Calu-3 (Her2 amp); [25]): 14.7 nM; GI50 (H292 (EGFR WT); [26]): > 1000 nM; GI50 (N87 (HER2 Amp); [27]): 11.2 nM; GI50 (A549 (EGFR WT); [28]): > 1000 nM; GI50 (PC-9 (EGFR dE746-A750); [29]): 10.5 nM; GI50 (H1975 (EGFR L858R/T790M); [30]): 10.1 nM
12.5 nM	> 1000 nM	> 1000 nM	> 1000 nM	37.5 nM	10 to 100 nM	> 1000 nM	> 1000 nM	> 1000 nM	> 1000 nM	< 10 nM	0.38 nM	< 10 nM	< 10 nM	1.1 nM	< 10 nM	< 10 nM	C=CC(=O)Nc1cc(Nc2cc(Nc3ccc(F)c(Cl)c3)ncn2)c(OC)cc1N(C)CCN(C)C [Compound 140, N-(5-(6-(3-chloro-4-fluoro-phenylamino)-pyrimidin-4-ylamino)-2-((2-dimethylamino-ethyl)-methyl-amino)-4-methoxyl-phenyl)-acrylamide]	< 10 nM	4.8 nM	< 10 nM	GI50 (H1975 (EGFR L858R/T790M); [20]): 3.8 nM; GI50 (SK-BR-3 (Her2 amp); [22]): 5.6 nM; GI50 (AU565 (Her2 amp); [24]): 2.6 nM

From patent publication US10342796B2, “Acrylanilide derivative, preparation method, and applications thereof in pharmacy” (Ancureall Pharmaceutical (Shanghai) Co., Ltd., priority 2015, dated 2019)
